Laboratory results published in the NIST ThermoML archive (doi:10.1021/acs.jced.5b00298).
Numbers after ± are expanded uncertainties.

Assay: mn = molality of the nth substance listed, in mol/kg
Conditions: 298.15 K, 101 kPa, Liquid, Vibrating tube method

Row | mass density (m1 = 0.4002) [kg/m3] | mass density (m1 = 0.8001) [kg/m3] | mass density (m1 = 1) [kg/m3] | Compound | mass density (m1 = 0.02) [kg/m3] | mass density (m1 = 0.1001) [kg/m3] | mass density (m1 = 0.4001) [kg/m3] | mass density (m1 = 0.8) [kg/m3] | mass density (m1 = 1.201) [kg/m3] | mass density (m1 = 1.602) [kg/m3] | mass density (m1 = 0.0201) [kg/m3] | mass density (m1 = 0.1) [kg/m3] | mass density (m1 = 0.8002) [kg/m3] | mass density (m1 = 1.2) [kg/m3] | mass density (m1 = 1.6) [kg/m3]
1 |  |  |  | O=[N+]([O-])[O-].[Na+] [sodium nitrate] + O | 998.191 ± 0.075 | 1002.65 ± 0.075 | 1019.02 ± 0.082 | 1040.02 ± 0.09 | 1060.25 ± 0.098 | 1079.67 ± 0.11 |  |  |  |  | 
2 |  |  |  | [Na+].[O-][Cl+3]([O-])([O-])[O-] [sodium perchlorate] + O |  |  | 1027.27 ± 0.087 |  |  |  | 998.644 ± 0.078 | 1004.82 ± 0.079 | 1055.68 ± 0.098 | 1083.49 ± 0.11 | 1111.93 ± 0.12
3 | 1045.75 ± 0.1 | 1090.93 ± 0.12 | 1112.49 ± 0.13 | O=S(=O)([O-])[O-].[Na+].[Na+] [sodium sulfate] + O |  | 1009.69 ± 0.089 |  |  |  |  | 999.638 ± 0.087 |  |  | 1133.41 ± 0.14 | 
